According to ChEMBL document CHEMBL4390668, “Discovery and Structural Optimization of Acridones as Broad-Spectrum Antimalarials” (J Med Chem, 2019):
Calls of active or inactive are those of the source. No cut-off for these calls is given here.

Assays:
Plasmodium berghei = assay: Antimalarial activity against luciferase-expressing Plasmodium berghei ANKA 676m1cl1 sporozoites infected in human HepG2A16 cells measured after 45 hrs by luciferase-luciferin based reporter assay; type: functional, organism-based; conditions: ANKA 676m1cl1, HepG2A16, 45 h
Plasmodium yoelii = assay: Antimalarial activity against blood stage Plasmodium yoelii MR4 MRA-428 infected in CF1 mouse assessed as suppression of parasitemia administered once daily via oral gavage for 4 days starting from 24 hrs post-infection and measured post-last dose by Giemsa-staining based microscopic analysis; type: functional
[1] = Half life in human liver microsomes at 1 uM by LC-MS analysis; type: ADME, Microsome
[2] = Mutagenicity in Salmonella typhimurium TA100 assessed as increase in revertant colonies up to 10 uM in absence of S9 fraction by Ames test; type: toxicity; conditions: salmonella enterica subsp. enterica serovar typhimurium
[3] = Selectivity index, ratio of IC50 for human HepG2 cells to IC50 for chloroquine-sensitive Plasmodium falciparum D6 infected in human erythrocytes; type: toxicity, cell-based; conditions: read-out: Ratio IC50
Plasmodium falciparum [4] = assay: Antimalarial activity against chloroquine-sensitive Plasmodium falciparum D6 infected in human erythrocytes by SYBR green 1-based fluorescence assay; type: functional, organism-based
HepG2 = assay: Cytotoxicity against human HepG2 cells measured after 24 to 36 hrs by resazurin dye based fluorescence assay; type: cell-based
hERG (KCNH2) = hERG (KCNH2) (Homo sapiens, UniProt Q12809); assay: Inhibition of human ERG expressed in CHOK1 cells at 10 uM by automated patch clamp method relative to control; type: cell-based; conditions: CHO-K1 cells that express hERG
[5] = Mutagenicity in Salmonella typhimurium TA98 assessed as increase in revertant colonies up to 10 uM in absence of S9 fraction by Ames test; type: toxicity; conditions: salmonella enterica subsp. enterica serovar typhimurium
[6] = Mutagenicity in Salmonella typhimurium TA98 assessed as increase in revertant colonies up to 10 uM in presence of S9 fraction by Ames test; type: toxicity, subcellular; conditions: salmonella enterica subsp. enterica serovar typhimurium
Plasmodium falciparum [7] = assay: Antimalarial activity against multidrug-resistant Plasmodium falciparum Dd2 infected in human erythrocytes by SYBR green 1-based fluorescence assay; type: functional, organism-based
[8] = Mutagenicity in Salmonella typhimurium TA100 assessed as increase in revertant colonies up to 10 uM in presence of S9 fraction by Ames test; type: toxicity, subcellular; conditions: salmonella enterica subsp. enterica serovar typhimurium
Plasmodium falciparum [9] = assay: Antimalarial activity against multidrug-resistant Plasmodium falciparum 7G8 infected in human erythrocytes by SYBR green 1-based fluorescence assay; type: functional, organism-based
[10] = Half life in mouse liver microsomes at 1 uM by LC-MS analysis; type: ADME, Microsome
Plasmodium falciparum [11] = assay: Antimalarial activity against atovaquone-resistant Plasmodium falciparum Tm90-C2B infected in human erythrocytes by SYBR green 1-based fluorescence assay; type: functional, organism-based
Plasmodium falciparum [12] = assay: Inhibition of Plasmodium falciparum cytochrome b-c1
Plasmodium falciparum [13] = assay: Antimalarial activity against drug-resistant Plasmodium falciparum Dd2 harboring V259L mutant infected in human erythrocytes after 72 hrs by SYBR green 1-based fluorescence assay; type: functional, organism-based; conditions: Dd2, 72 h
Plasmodium falciparum [14] = assay: Antimalarial activity against drug-resistant Plasmodium falciparum 3D7 harboring A82T/V259L double mutant infected in human erythrocytes after 72 hrs by SYBR green 1-based fluorescence assay; type: functional, organism-based; conditions: 3D7, 72 h
Plasmodium falciparum [15] = assay: Antimalarial activity against Plasmodium falciparum 3D7 infected in human erythrocytes after 72 hrs by SYBR green 1-based fluorescence assay; type: functional, organism-based; conditions: 3D7, 72 h
Plasmodium falciparum [16] = assay: Antimalarial activity against drug-resistant Plasmodium falciparum Dd2 harboring M133I/A138T double mutant infected in human erythrocytes after 72 hrs by SYBR green 1-based fluorescence assay; type: functional, organism-based; conditions: Dd2, 72 h
Plasmodium falciparum [17] = assay: Antimalarial activity against drug-resistant Plasmodium falciparum Dd2 harboring M133I mutant infected in human erythrocytes after 72 hrs by SYBR green 1-based fluorescence assay; type: functional, organism-based; conditions: Dd2, 72 h

Chain of hERG (KCNH2) (Q12809 whole entry): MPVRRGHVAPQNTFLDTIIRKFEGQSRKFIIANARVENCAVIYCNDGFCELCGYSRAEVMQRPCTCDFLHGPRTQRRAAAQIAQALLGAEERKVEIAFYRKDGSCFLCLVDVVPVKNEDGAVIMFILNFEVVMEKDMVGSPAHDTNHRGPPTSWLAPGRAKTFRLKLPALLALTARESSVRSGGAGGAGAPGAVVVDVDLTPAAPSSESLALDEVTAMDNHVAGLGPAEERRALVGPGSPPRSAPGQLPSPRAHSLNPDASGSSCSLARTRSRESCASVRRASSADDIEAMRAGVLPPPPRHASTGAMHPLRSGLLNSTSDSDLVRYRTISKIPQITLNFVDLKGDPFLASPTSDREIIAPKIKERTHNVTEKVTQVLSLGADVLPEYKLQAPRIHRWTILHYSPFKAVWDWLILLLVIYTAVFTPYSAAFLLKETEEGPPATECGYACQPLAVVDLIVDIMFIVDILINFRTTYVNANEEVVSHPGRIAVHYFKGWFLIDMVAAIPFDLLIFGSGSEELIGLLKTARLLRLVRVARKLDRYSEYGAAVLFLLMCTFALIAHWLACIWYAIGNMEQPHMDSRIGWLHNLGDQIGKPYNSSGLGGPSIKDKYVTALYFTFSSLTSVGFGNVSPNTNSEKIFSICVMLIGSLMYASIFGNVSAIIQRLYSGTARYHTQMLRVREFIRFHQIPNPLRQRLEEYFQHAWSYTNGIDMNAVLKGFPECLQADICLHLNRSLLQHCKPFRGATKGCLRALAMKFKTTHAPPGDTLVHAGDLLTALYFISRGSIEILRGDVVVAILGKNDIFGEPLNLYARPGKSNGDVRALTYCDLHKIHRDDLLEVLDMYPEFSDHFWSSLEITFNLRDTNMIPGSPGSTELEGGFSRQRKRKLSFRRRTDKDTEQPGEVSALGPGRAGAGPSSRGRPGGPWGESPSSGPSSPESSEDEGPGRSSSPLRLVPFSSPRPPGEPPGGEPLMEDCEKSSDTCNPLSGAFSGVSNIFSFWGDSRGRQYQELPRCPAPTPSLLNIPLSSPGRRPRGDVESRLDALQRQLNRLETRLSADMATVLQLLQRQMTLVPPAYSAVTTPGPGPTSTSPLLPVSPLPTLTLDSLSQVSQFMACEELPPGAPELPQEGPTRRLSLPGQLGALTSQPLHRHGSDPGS

SMILES	IC50 (Plasmodium berghei) [nM]	ED50 (Plasmodium yoelii) [mg/kg.day]	ED90 (Plasmodium yoelii) [mg/kg.day]	half-life at 1 µM [1] [min]	selectivity ratio [3]	IC50 (Plasmodium falciparum [4]) [nM]	IC50 (HepG2) [nM]	IC50 (Plasmodium falciparum [7]) [nM]	IC50 (Plasmodium falciparum [9]) [nM]	half-life at 1 µM [10] [min]	IC50 (Plasmodium falciparum [11]) [nM]	inhibition (Plasmodium falciparum [12])	IC50 (Plasmodium falciparum [13]) [nM]	further results
CCN(CC)CCCOc1ccc2c(=O)c3c(Cl)cc(Cl)cc3[nH]c2c1	138	0.43	24.1	9	6840	19	130000	45	114	16	228			Activity [2]: Non-Toxic; inhibition at 10 µM (hERG (KCNH2)): 59%; Activity [5]: Non-Toxic; Activity [6]: Non-Toxic; Activity [8]: Non-Toxic
CCCN(CCC)CCOc1ccc2c(=O)c3c(Cl)cc(Cl)cc3[nH]c2c1	3.7	0.21	3.54	> 60				0.003	0.006	> 60	153			Activity [2]: Non-Toxic; inhibition at 10 µM (hERG (KCNH2)): 38%; Activity [5]: Non-Toxic; Activity [6]: Non-Toxic; Activity [8]: Non-Toxic
CCCN(CCC)CCOc1ccc2c(=O)c3ccc(Cl)cc3[nH]c2c1	14.8			> 60	16300	2.5	40600	11	9.1	> 60	1540			
CN1CCCC1CCOc1ccc2c(=O)c3c(Cl)c(Cl)ccc3[nH]c2c1 (stereo not drawn)					992	48	47600	172 to 616	440		368	inactive	3110	
O=c1c2ccc(OCCCCl)cc2[nH]c2cc(Cl)cc(Cl)c12	523			> 60	> 45500	2.2	> 100000	2.9	6.6	55	70			
O=c1c2ccc(OCCCC(F)(F)F)cc2[nH]c2cc(F)cc(F)c12	48			> 60	> 200000	0.027	> 200000	0.033	0.5	59	40			
CCN(CC)CCOc1ccc2[nH]c3cc(Cl)ccc3c(=O)c2c1	793			> 60	272	110	30000	132 to 366	81	34	97	inactive	355	IC50 (Plasmodium falciparum [14]): 284 nM; IC50 (Plasmodium falciparum [15]): 262 nM; IC50 (Plasmodium falciparum [16]): 340 nM
CCN(CC)CCOc1ccc2c(=O)c3c(F)cc(F)cc3[nH]c2c1		1.62	9.91		9950	7.8	77600	16 to 20	12		1980	inactive	525	IC50 (Plasmodium falciparum [14]): 1150 nM; IC50 (Plasmodium falciparum [15]): 15 nM; IC50 (Plasmodium falciparum [16]): 60 nM
CCCCCCOc1ccc2c(=O)c3c(F)cc(F)cc3[nH]c2c1	72	1.09	12.7		> 100000	0.026	> 100000	0.041	0.05		5.4			Activity [2]: Non-Toxic; inhibition at 10 µM (hERG (KCNH2)): 20%; Activity [5]: Non-Toxic; Activity [6]: Non-Toxic; Activity [8]: Non-Toxic
CC(C)(C)NCCOc1ccc2c(=O)c3c(Cl)c(Cl)ccc3[nH]c2c1					362	106	38400	139 to 679	295		> 2500	inactive	3070	
O=C1C(O)=C([C@H]2CC[C@H](c3ccc(Cl)cc3)CC2)C(=O)c2ccccc21 [ATOVAQUONE]												inactive	4.1	IC50 (Plasmodium falciparum [14]): 1.9 nM; IC50 (Plasmodium falciparum [15]): 0.5 nM; IC50 (Plasmodium falciparum [17]): 6.9 nM
C=C[C@H]1CN2CC[C@H]1C[C@H]2[C@H](O)c1ccnc2ccc(OC)cc12 [QUININE]								254				inactive	215	IC50 (Plasmodium falciparum [16]): 199 nM; IC50 (Plasmodium falciparum [17]): 197 nM
